In US20230000813A1, “COMPOUND FOR THE TREATMENT OF BOVINE OR SWINE RESPIRATORY DISEASE” (Intervet Inc., priority 2016, published 2023):
Converted amounts (≈) assume the structure as drawn.

What was measured:
Test in all cases: MIC, broth-microdilution (CLSI VET01-A4)
Type in all cases: cell-based
[1] = system: Mannheimia haemolytica MH 13065 (XB0446-6003.9, BRD field isolate)
Outline: (§1)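 MIC read by eye as lowest compound concentration without visible growth (no turbidity), interpreted per CLSI VET01-S3. Doubling-dilution broth-microdilution trays, run according to CLSI VET01-A4.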

[2] = system: Mannheimia haemolytica MH 13093 (XB0472-6014.1, BRD field isolate)
Outline: as §1

[3] = system: Pasteurella multocida PM 12080 (IV102277-0093, BRD field isolate); details: Pasteurella multocida PM 12080; for MIC: read-out: MIC PM 12080
Outline: (§2)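 Test compound is serially diluted twofold across microdilution trays, bacteria are grown, and wells are inspected by eye. The lowest concentration showing no growth is recorded as the MIC.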

[4] = system: Pasteurella multocida PM 6391 (ATCC 43137, reference strain); details: Pasteurella multocida PM 6391; for MIC: read-out: MIC PM 6391
Outline: as §2

[5] = system: Mannheimia haemolytica MH 10720 (154, BRD field isolate); details: Mannheimia haemolytica MH 10720; for MIC: read-out: MIC MH 10720
Outline: as §2

[6] = system: Mannheimia haemolytica MH 6357 (M7/2, reference strain, cattle infection strain); details: Mannheimia haemolytica MH 6357; read-out: MIC MH 6357
Outline: as §2

[7] = system: Mannheimia haemolytica MH 12587 (1071, BRD field isolate, macrolide-resistance: erm+, E+); details: Mannheimia haemolytica MH 12587, macrolide-resistant
Outline: as §2

[8] = system: Pasteurella multocida PM 10775 (080130003051, BRD field isolate); details: Pasteurella multocida PM 10775
Outline: as §2

[9] = system: Mannheimia haemolytica MH 6374 (ATCC 33396, reference strain); details: Mannheimia haemolytica MH 6374; read-out: MIC MH 6374
Outline: as §2

[10] = system: Pasteurella multocida PM 6267 (P 2225 (L386), reference strain, mouse infection strain); details: Pasteurella multocida PM 6267; for MIC: read-out: MIC PM 6267
Outline: as §2

SMILES | MIC [1] [µM] | MIC [2] [µM] | MIC PM 12080 [3] | MIC PM 6391 [4] | MIC MH 10720 [5] | MIC [6] [µM] | MIC MH 12587 [7] [µM] | MIC PM 10775 [8] | MIC [9] [µM] | MIC PM 6267 [10] | MIC [3] [µM] | MIC [4] [µM] | MIC [5] [µM] | MIC [10] [µM]
C[C@@H](O)[C@H](NC(=O)c1ccc(C#Cc2ccc(CNCc3ccnc(Cl)c3)cc2)cc1)C(=O)NO [Compound 257] | 0.4 (≈ 0.197 µg/mL) | 0.4 (≈ 0.197 µg/mL) | <=0.1 μM | <=0.1 μM | <=0.1 μM | 0.2 (≈ 0.0986 µg/mL) | 0.8 (≈ 0.394 µg/mL) | <=0.1 μM | 0.2 (≈ 0.0986 µg/mL) | <=0.1 μM | – | – | – | –
CC(C)C(NC(=O)c1ccc(C#Cc2ccc(CNCc3ccco3)cc2)cc1)C(=O)NO (stereo not drawn) [Compound 290] | 0.4 (≈ 0.178 µg/mL) | 0.4 (≈ 0.178 µg/mL) | – | – | <=0.1 μM | 0.2 (≈ 0.0891 µg/mL) | 0.4 (≈ 0.178 µg/mL) | <=0.1 μM | 0.4 (≈ 0.178 µg/mL) | <=0.1 μM | 0.2 (≈ 0.0891 µg/mL) | 0.4 (≈ 0.178 µg/mL) | – | –
CC(C)([C@H](NC(=O)c1ccc(C#Cc2ccc(CN3CCOCC3)cc2)cc1)C(=O)NO)S(C)(=O)=O [Compound 604] | 0.8 (≈ 0.411 µg/mL) | 1.6 (≈ 0.822 µg/mL) | <=0.1 μM | <=0.1 μM | – | 1.6 (≈ 0.822 µg/mL) | 1.6 (≈ 0.822 µg/mL) | <=0.1 μM | 1.6 (≈ 0.822 µg/mL) | <=0.1 μM | – | – | 0.2 (≈ 0.103 µg/mL) | –
C[C@@H](O)[C@H](NC(=O)c1ccc(C#Cc2ccc(CN3CCc4ccccc4C3)s2)cc1)C(=O)NO [Compound 194] | 0.4 (≈ 0.196 µg/mL) | 0.8 (≈ 0.392 µg/mL) | <=0.1 μM | <=0.1 μM | <=0.1 μM | 0.2 (≈ 0.0979 µg/mL) | 0.8 (≈ 0.392 µg/mL) | <=0.1 μM | 0.8 (≈ 0.392 µg/mL) | <=0.1 μM | – | – | – | –
CCC(C)C(NC(=O)c1ccc(C#Cc2ccc(CNCc3ccco3)cc2)cc1)C(=O)NO (stereo not drawn) [Compound 301] | 0.8 (≈ 0.368 µg/mL) | 0.8 (≈ 0.368 µg/mL) | – | – | <=0.1 μM | 0.4 (≈ 0.184 µg/mL) | 1.6 (≈ 0.735 µg/mL) | <=0.1 μM | 0.8 (≈ 0.368 µg/mL) | – | 0.4 (≈ 0.184 µg/mL) | 0.8 (≈ 0.368 µg/mL) | – | 0.4 (≈ 0.184 µg/mL)
C[C@@H](O)[C@H](NC(=O)c1ccc(C#Cc2ccc(CNCc3ccccc3)cc2)cc1)C(=O)NO [Compound 2] | 1 (≈ 0.458 µg/mL) | 0.8 (≈ 0.366 µg/mL) | <=0.1 μM | <=0.1 μM | <=0.1 μM | 0.2 (≈ 0.0915 µg/mL) | 0.8 (≈ 0.366 µg/mL) | <=0.1 μM | 0.2 (≈ 0.0915 µg/mL) | <=0.1 μM | – | – | – | –
CSC(C)(C)C(NC(=O)c1ccc(C#Cc2ccc(CNCc3ccccc3)cc2)cc1)C(=O)NO (stereo not drawn) [Compound 585] | 0.8 (≈ 0.401 µg/mL) | 0.8 (≈ 0.401 µg/mL) | – | – | – | 0.8 (≈ 0.401 µg/mL) | 1.6 (≈ 0.803 µg/mL) | <=0.1 μM | 1.6 (≈ 0.803 µg/mL) | – | 0.4 (≈ 0.201 µg/mL) | 0.4 (≈ 0.201 µg/mL) | 0.2 (≈ 0.1 µg/mL) | 0.2 (≈ 0.1 µg/mL)
CC(C)(N)C(NC(=O)c1ccc(C#Cc2ccc(CN3CC=CC3)s2)cc1)C(=O)NO (racemic) [Compound 649] | 0.4 (≈ 0.175 µg/mL) | 0.8 (≈ 0.351 µg/mL) | – | – | <=0.1 μM | 0.8 (≈ 0.351 µg/mL) | 0.8 (≈ 0.351 µg/mL) | <=0.1 μM | 0.4 (≈ 0.175 µg/mL) | <=0.1 μM | 0.2 (≈ 0.0877 µg/mL) | 0.2 (≈ 0.0877 µg/mL) | – | –
CC(C)(N)C(NC(=O)c1ccc(C#Cc2ccc(CNCc3cccnc3)cc2)cc1)C(=O)NO (racemic) [C. 364] | 0.8 (≈ 0.377 µg/mL) | 1.6 (≈ 0.754 µg/mL) | <=0.1 μM | – | – | 1.6 (≈ 0.754 µg/mL) | 1.6 (≈ 0.754 µg/mL) | <=0.1 μM | 1.6 (≈ 0.754 µg/mL) | <=0.1 μM | – | 0.2 (≈ 0.0943 µg/mL) | 0.8 (≈ 0.377 µg/mL) | –
